Results published in patent US6153611A, “Piperazinyl-cyclohexanes and cyclohexenes” (Bristol-Myers Squibb Company, priority 1993, dated 2000).
Like-named read-outs stand apart in the source and are kept apart here. Values belong to the compound of their own block, whether it stands above or below them.

Assays:
Dopamine D2 = target: T1, Dopamine D2 (Rattus norvegicus, UniProt P61169); experiment: Dopamine D2 Binding Assay ([3H]Spiperone, corpus striatum membranes); set-up: species or system male Sprague-Dawley rats; details: [3H]Spiperone 0.1 nM, 37° C., 15 min
T1 construct: The corpus striatum was crudely dissected and frozen on dry ice; from tissue; host or cells: rat corpus striatum membranes (male Sprague-Dawley rats, Charles River)
T1 sequence (P61169 whole entry): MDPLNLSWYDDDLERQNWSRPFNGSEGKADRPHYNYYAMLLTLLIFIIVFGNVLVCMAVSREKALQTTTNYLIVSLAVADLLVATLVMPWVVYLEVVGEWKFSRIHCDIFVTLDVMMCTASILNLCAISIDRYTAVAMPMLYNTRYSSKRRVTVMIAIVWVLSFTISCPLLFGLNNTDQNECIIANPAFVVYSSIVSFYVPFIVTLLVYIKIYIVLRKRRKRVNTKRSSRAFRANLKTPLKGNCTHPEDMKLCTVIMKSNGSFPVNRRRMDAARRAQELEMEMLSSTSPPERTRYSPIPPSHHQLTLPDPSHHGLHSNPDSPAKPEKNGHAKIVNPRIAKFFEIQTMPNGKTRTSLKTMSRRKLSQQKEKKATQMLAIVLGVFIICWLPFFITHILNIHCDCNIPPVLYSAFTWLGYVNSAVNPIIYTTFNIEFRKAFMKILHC
Method: Activity at D2 sites is measured using the screening process set out in Example 67.
Dopamine D2 Binding Assay
Dopamine D2 affinity was determined according to the procedures of Burt, Creese and Snyder [Molecular Pharmacology 12,800 (1976); Science 196, 326 (1977); Science 192, 481 (1976)]. Briefly, male Sprague-Dawley rats (Charles River) were decapitated, brains rapidly removed and chilled in ice-cold 50 mM Hepes/KOH buffer (pH 7.4, 20° C.). The corpus striatum was crudely dissected and frozen on dry ice. Tissue was pooled and stored at -80° C. until use. On the day of assay, tissue was thawed in 20 ml ice-cold Hepes/KOH buffer, and homogenized with a polytron for 15 sec at 18,000 rpm. The homogenate was centrifuged (39,000×g, 10 min, at 4° C.). The supernatant was discarded and the pellet rehomogenized in ice-cold Hepes/KOH buffer and recentrifuged as described previously. The supernatant was again discarded and the pellet resuspended (1:100) in ice-cold Hepes/KOH buffer (pH 7.4, 20° C., containing 120 mM NaCl, 5 mM KCl, 1 mM MgCl2, 0.1% (w/v) ascorbic acid, and 10 μM pargylline, and stored on ice until assay. The binding assay (1 ml total volume) was performed in duplicate and initiated by the addition of 800 μl membrane homogenate to tubes containing 100 μl [^3 H]Spiperone (0.1 nM final concentration), and 100 μl competitor, buffer, or butaclamol, which was used to define the non-specific binding. The assay was incubated at 37° C. for 15 min, afterwhich the assay was terminated by rapid filtration.
In vitro IC50 test values for binding to the D2 receptor were determined for representative compounds of Formula I by the method of Burt, Creese, and Snyder, Molecular Pharmacology 12, 800 (1976); Creese, Burt, and Snyder, Science 196, 326 (1977); and Creese, Burt and Snyder, Science 192, 481 (1976). Test IC50 values greater than 1,000 nM are considered to reflect inactivity at the D2 receptor, indicating the risk of extrapyramidal side effects is small.

sigma receptor = target: T2, sigma receptor (Cavia porcellus, UniProt Q60492); experiment: Sigma binding (method of Tam and Cook)
T2 construct: from tissue
T2 sequence (Q60492 whole entry): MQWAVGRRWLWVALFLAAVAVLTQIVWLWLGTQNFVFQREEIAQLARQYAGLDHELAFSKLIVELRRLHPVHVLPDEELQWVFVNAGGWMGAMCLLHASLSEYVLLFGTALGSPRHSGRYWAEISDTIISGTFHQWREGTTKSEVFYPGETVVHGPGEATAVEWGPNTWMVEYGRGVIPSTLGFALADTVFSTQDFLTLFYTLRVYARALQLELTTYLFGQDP
Method: In vitro IC50 test values for binding to the sigma receptor were determined for representative compounds of Formula I by the method of Tam and Cook [see: Tam, S. W., and Cook, L: Proc. Natl. Acad. Sci. USA 81, 5618-5621 (1984)] with only minor modifications. Test IC50 values lower than 100 nM are considered to reflect activity at the sigma receptor.

brain ischemia = experiment: Anoxic Nitrogen Test in Rats; type: in vivo, male Sprague-Dawley rats; details: Rattus norvegicus, sc, subcutaneously, 2 hr survival, read-out: Nitrogen Anoxia % Survival
From the text: Most specifically, administration of the compounds of Formula I results in protection against hypoxia-induced death in an anoxic nitrogen test in rats (Example 66). The test identifies the neuro-protective effects of substances against lethal brain damages produced by a lack of oxygen consumption (anoxia). In this test procedure, control animals exposed for one minute to a pure nitrogen atmosphere will expire because of respiratory failure caused by irreversible damage to the brain respiratory center.
Anoxic Nitrogen Test in Rats
The animals utilized are male Sprague-Dawley rats (200-400 grams) housed four animals per cage in a normal controlled environment with unlimited access to food and water. Usually there are 8 animals per dose, however, […] can be employed to obtain an initial impression of a compound's activity. Animals are parenterally or orally administered the vehicle or test compound 30 minutes before the anoxic insult. The anoxic episode consists of placing up to 8 animals in the sealed test chamber (10" l×10" w×6" h) continuously flushed with pure N2 (4.5 grade) at a flow rate of 5 SCFM for 1 min. Animals are then promptly removed to normal atmosphere and observed for the 2 hour period. Typically, animals become disoriented within 15 sec after which they remain motionless.
Even though the heart is still beating after the N2 exposure, all control animals fail to gasp when removed from the chamber and usually expire within 3 minutes. Drug treated animals, however, still gasp or start gasping after being removed, which is a good indication that the animals will survive the N2 exposure [see Wauquire, A., et al: Arch. Int. Pharmacodyn., 249, 330-334 (1981); Wauquier, A., et al: Drug Dev. Res., 8, 373-380 (1986)]. Results are recorded as:
(Number of animals surviving (2 hr))/(Number of animals tested)×100%
The anoxic nitrogen test is an in vivo model of brain ischemia in rats [see: Wauquire, A., et al: Arch. Int. Pharmacodyn., 249, 330-334 (1981); Wauquier, A., et al: Drug Dev. Res., 8, 373-380 (1986)]. Compounds of the present invention are active in this in vivo model of brain ischemia when given subcutaneously in the doses indicated in Table 2, thus providing additional evidence that the present compounds will be useful in the treatment of brain ischemia.

SMILES: Fc1ccc(C2=CCC(N3CCN(Cc4ccccc4)CC3)CC2)cc1 (stereo not drawn) [Example 35, 1-[4-(4-Fluorophenyl)-3-cyclohexen-1-yl]-4-(phenylmethyl)-piperazine]
IC50 (Dopamine D2): 50 to 100 µM
IC50 (sigma receptor): 0.0019 µM
responders at 15 mg/kg (brain ischemia; 15 & 20 mg/kg): 100%

SMILES: Fc1ccc(C2=CCC(N3CCN(Cc4ccccc4)CC3)CC2)c2ccccc12 (stereo not drawn) [Example 36, 1-[4-(4-Fluoro-1-naphthalenyl)-3-cyclohexen-1-yl]-4-(phenylmethyl)piperazin]
IC50 (Dopamine D2): 1 to 10 µM
responders at 50 mg/kg (brain ischemia; 50 mg/kg): 100%

SMILES: C1=C(c2ccc3c(c2)OCO3)CCC(N2CCN(Cc3ccccc3)CC2)C1 (stereo not drawn) [Example 37, 1-[4-(1,3-Benzodioxol-5-yl)-3-cyclohexen-1-yl]-4-(phenylmnethyl) piperazine]
IC50 (Dopamine D2): 10 to 50 µM
IC50 (sigma receptor): 0.0019 µM
responders at 40 mg/kg (brain ischemia): 92%

SMILES: C1=C(c2nc3ccccc3s2)CCC(N2CCN(Cc3ccccc3)CC2)C1 (stereo not drawn) [Example 38, 1-[4-(2-Benzothiazolyl)-3-cyclohexen-1-yl]-4-(phenylmethyl)piperazine]
IC50 (Dopamine D2): 10 to 50 µM
IC50 (sigma receptor): 0.0039 µM
responders at 80 mg/kg (brain ischemia; 80 mg/kg): 100%

SMILES: COc1ccc(C2=CCC(N3CCN(Cc4ccccc4)CC3)CC2)cc1 (stereo not drawn) [Example 39, 1-[4-(4-Methoxyphenyl)-3-cyclohexen-1-yl]-4-(phenylmethyl)piperazine]
IC50 (Dopamine D2): 1 to 10 µM
IC50 (sigma receptor): 0.0009 µM
responders at 20 mg/kg (brain ischemia; 20 & 30 mg/kg): 92%

SMILES: FC(F)(F)c1ccc(C2=CCC(N3CCN(Cc4ccccc4)CC3)CC2)cc1 (stereo not drawn) [Example 40, 1-(Phenylmethyl)-4-[4-[4-(trifluoromethyl)phenyl]-3-cyclohexen-1-yl]piperazine]
IC50 (Dopamine D2): 10 to 50 µM
IC50 (sigma receptor): 0.0045 µM
responders at 10 mg/kg (brain ischemia): 100%

SMILES: Fc1ccc(CN2CCN(C3CC=C(c4ccc(F)cc4)CC3)CC2)cc1 (stereo not drawn) [Example 41, 1-[4-(4-Fluorophenyl)-3-cyclohexen-1-yl]-4-[(4-fluorophenyl)methyl]piperazine]
IC50 (Dopamine D2): 1 to 10 µM
IC50 (sigma receptor): 0.0006 µM
responders at 20 mg/kg (brain ischemia; 20 mg/kg): 92%

SMILES: Fc1ccc(CN2CCN(C3CC=C(c4ccc(C(F)(F)F)cc4)CC3)CC2)cc1 (stereo not drawn) [Example 42, 1-[(4-Fluorophenyl)methyl]-4-[4-[4-(trifluoromethyl)phenyl]-3-cyclohexen-1-yl]piperazine]
IC50 (Dopamine D2): > 100 µM
IC50 (sigma receptor): 0.0069 µM
responders at 20 mg/kg (brain ischemia; 20 mg/kg): 100%

SMILES: C1=C(Cc2ccccc2)CCC(N2CCN(Cc3ccccc3)CC2)C1 (stereo not drawn) [Example 43, 1-(Phenylmethyl)-4-[4-(phenylmethyl)-3-cyclohexen-1-yl]piperazine]
IC50 (Dopamine D2): 1 to 10 µM
IC50 (sigma receptor): 0.0021 µM
responders at 5 mg/kg (brain ischemia; 5 mg/kg): 75%

SMILES: Fc1ccc(C2=CCC(N3CCN(Cc4cccs4)CC3)CC2)cc1 (stereo not drawn) [Example 44, 1-[4-(4-Fluorophenyl)-3-cyclohexen-1-yl]-4-(2-thienylmethyl)piperazine]
IC50 (Dopamine D2): 1 to 10 µM
responders at 40 mg/kg (brain ischemia): 100%

SMILES: Fc1ccc(C2=CCC(N3CCN(Cc4ccc5ccccc5n4)CC3)CC2)cc1 (stereo not drawn) [Example 45, 2{{4-[4-(4-Fluorophenyl)-3-cyclohexen-1-yl]-1-piperazinyl]methyl]quinoline]
IC50 (Dopamine D2): 1 to 10 µM
responders at 20 mg/kg (brain ischemia; 20 mg/kg): 83%

SMILES: Fc1ccc(C2=CCC(N3CCN(Cc4ccncc4)CC3)CC2)cc1 (stereo not drawn) [Example 46, 1-[4-(4-Fluorophenyl)-3-cyclohexen-1-yl]-4-(4-pyridinylmethyl)piperazine]
IC50 (Dopamine D2): 50 to 100 µM
IC50 (sigma receptor): 0.0005 µM
responders at 20 mg/kg (brain ischemia; 20 mg/kg): 83%

SMILES: Fc1ccc(C2=CCC(N3CCC(Cc4ccccc4)CC3)CC2)cc1 (stereo not drawn) [Example 47, 1-[4-(4-Fluorophenyl)-3-cyclohexen-1-yl]-4-(phenylmethyl)piperidine]
IC50 (Dopamine D2): 1 to 10 µM
IC50 (sigma receptor): 0.004 µM
responders at 40 mg/kg (brain ischemia): 88%

SMILES: COc1ccc2[nH]cc(C3=CCC(N4CCN(Cc5ccccc5)CC4)CC3)c2c1 (stereo not drawn) [Example 48, 5-Methoxy-3-[4-[4-(phenylmethyl)-1-piperazinyl]-1-cyclohexen-1-yl]-1H-indole]
IC50 (Dopamine D2): 1 to 10 µM
IC50 (sigma receptor): 0.0062 µM
responders at 40 mg/kg (brain ischemia): 88%

IC50 (Dopamine D2): 1 to 10 µM
SMILES: Fc1ccccc1CC1CCN(C2CC=C(c3ccc4c(c3)OCO4)CC2)CC1 (stereo not drawn) [Example 53, 1-[4-(1,3-Benzodioxol-5-yl)-3-cyclohexen-1-yl]-4-[(2-fluorophenyl)methyl]piperidine]

IC50 (Dopamine D2): 1 to 10 µM
SMILES: Fc1ccc(F)c(CC2CCN(C3CC=C(c4ccc(F)c(F)c4)CC3)CC2)c1 (stereo not drawn) [Example 55, 1-[4-(3,4-Difluorophenyl)-3-cyclohexen-1-yl]-4-[(2,5-difluorophenyl)methyl]piperidine]

SMILES: C1=C(c2ccc3c(c2)OCCO3)CCC(N2CCN(Cc3ccccc3)CC2)C1 (stereo not drawn) [Example 56, 1-[4-(1,4-Benzodioxan-6-yl)-3-cyclohexen-1-yl]-4-(phenylmethyl)piperazine]
responders at 10 mg/kg (brain ischemia): 100%

SMILES: Clc1ccccc1CN1CCN(C2CC=C(c3ccc4c(c3)OCO4)CC2)CC1 (stereo not drawn) [Example 57, 1-[4-(1,3-Benzodioxol-5-yl)-3-cyclohexen-1-yl]-4-[(2-chlorophenyl)methyl]piperazine]
IC50 (Dopamine D2): 1 to 10 µM
responders at 10 mg/kg (brain ischemia): 25%

SMILES: Fc1ccc(F)c(CN2CCN(C3CC=C(c4ccc5c(c4)OCO5)CC3)CC2)c1 (stereo not drawn) [Example 58, 1-[4-(1,3-Benzodioxol-5-yl)-3-cyclohexen-1-yl]-4-[(2,5-difluorophenyl)methyl]piperazine]
IC50 (Dopamine D2): 1 to 10 µM
responders at 10 mg/kg (brain ischemia): 62%

SMILES: COc1cccc(CN2CCN(C3CC=C(c4ccc5c(c4)OCO5)CC3)CC2)c1 (stereo not drawn) [Example 59, 1-[4-(1,3-Benzodioxol-5-yl)-3-cyclohexen-1-yl]-4-[(3-methoxyphenyl)methyl]piperazine]
IC50 (Dopamine D2): 1 to 10 µM
responders at 10 mg/kg (brain ischemia): 75%

IC50 (Dopamine D2): > 100 µM
SMILES: Ic1ccc(I)c(CN2CCN(C3CC=C(c4ccc5c(c4)OCO5)CC3)CC2)c1 (stereo not drawn) [Example 61, 1-[4-(1,3-Benzodioxol-5-yl)-3-cyclohexen-1-yl]-4-[(2,5-diiodophenyl)methyl]piperazine]

SMILES: Fc1ccc([C@H]2CC[C@H](N3CCN(Cc4ccc5ccccc5n4)CC3)CC2)cc1 [Example 64, Trans 2-{{4-[4-(4-fluorophenyl)-1-cyclohexyl]-1-piperazinyl}methyl]quinoline]
IC50 (Dopamine D2): 1 to 10 µM
responders at 5 mg/kg (brain ischemia; 5 & 20 mg/kg): 83%
